Data: patent publication US20060014704A1, “Compounds and their preparation for the treatment of Alzheimer's disease by inhibiting beta-amyloid peptide production” (priority 2004, published 2006)
“Also recorded” adds a separate entry of the source. Like-named read-outs stand apart in the source and are kept apart here.

What was measured:
[1] = system: Aβ species, CHO-APP cells; test: Mass spectrometric analysis of Aβ species produced from CHO-APP cells; type: cell-based, Chinese hamster; conditions: mass spectrometry, vs DMSO
Procedure: Note that treatment leads to a decrease in Aβ42 species (1-42), and elevation in both Aβ37 (1-37) and Aβ38 (1-38). Mass spectrometric analysis of Aβ species were performed as previously described (Wang R, Sweeny D, Gandy S E, Sisodia S S. The profile of soluble amyloid β-protein in cultured cell media. J. Bio. Chem. 1996; 271: 31894-31902).

γ-secretase = γ-secretase (Homo sapiens, UniProt P49768); test: Cell-free γ-secretase assay (CHAPSO-solubilized membrane fractions, recombinant substrates, Aβ ELISA); type: biochemical
Procedure: (A) CHAPSO-solubilized membrane fractions were incubated with recombinant γ-secretase substrates together with the indicated compounds (at 100 μM) and the levels of Aβ42 and Aβ40 were determined by ELISA as described (27-29). (B) Dose-response of Aβ40 and Aβ42-lowering activity of Rk1 and (20S)Rg3 in a cell-free γ-secretase assay.
Next, the inhibitory effects of Rk1 and (20S)Rg3 on Aβ generation in an in vitro γ-secretase assay was studied. […] In contrast, naproxen, an NSAID without Aβ42-lowering activity, had no effects on Aβ42 production (FIG. 15A).

[2] = system: full-length APP and APP C-terminal fragments, CHO-APP cells; test: Western blot analysis of APP processing in CHO-APP cells; type: cell-based, Chinese hamster; conditions: cell lysates
From the text: (§1) FIG. 13. depicts an analysis of APP processing after Rk1 treatment. Steady-state levels of full-length APP and APP C-terminal fragments (APP-CTFs) were examined by Western blot analysis using anti-R1 antibody. […] Correlated Aβ42 levels for each sample are shown in the bottom panel.

[3] = target: T1, γ-secretase cleavage of p75 neurotrophin receptor (p75-ICD) (Homo sapiens, UniProt P49768); test: Cell-free generation of p75-ICD from membrane fractions of 293 cells overexpressing p75-AE; type: biochemical
T1 construct: Membrane fractions isolated from 293 cells overexpressing either APP (A), Notch-AE (B) or p75-AE (C); endogenous in cells; host or cells: 293 cells (membrane fractions); only the substrates APP, Notch-ΔE and p75-ΔE are overexpressed
Procedure: (§2) Membrane fractions isolated from 293 cells overexpressing either APP (A), Notch-AE (B) or p75-AE (C) and incubated in the presence of indicated compounds: Compound E (CpdE, general γ-secretase inhibitor), Rgk351, Rk1 and sulindac sulfide (SS).

[4] = system: Aβ40 and Aβ42 production, CHO cells stably transfected with human APP695; test: Secreted Aβ40/Aβ42 ELISA in CHO cells expressing human APP (CHO-APP cells); type: cell-based, Chinese hamster; set-up: key to Aβ42-lowering activity: Aβ42-lowering activity (“Yes”); no profound effects (“No”); non-determined (“ND”); Ginsenosides that affected cell viability are indicated as “Cytotoxic.”
Outline: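 CHO-APP cells treated with compounds at 50 μg/ml for 8 hrs; secreted Aβ40 and Aβ42 in medium measured by ELISA, Aβ42 normalized to intracellular full-length APP.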

[5] = system: Aβ40 and Aβ42 secretion, primary embryonic cortical neurons; test: Aβ secretion in primary embryonic cortical neurons derived from Tg2576 transgenic mice; type: cell-based, mouse
From the text: Treatment of Rk1 and Rg3 decreased the level of secreted Aβ40 and Aβ42.

[6] = system: Aβ40 and Aβ42 production, CHO-APP/PS1 cells; test: Secreted Aβ ELISA in CHO-APP/PS1 cells (wild-type PS1); type: cell-based, Chinese hamster
[7] = target: T2, γ-secretase cleavage of APP (AICD) (Homo sapiens, UniProt P49768); test: Cell-free generation of AICD from membrane fractions of 293 cells overexpressing APP; type: biochemical
T2 construct: Membrane fractions isolated from 293 cells overexpressing either APP (A), Notch-AE (B) or p75-AE (C); endogenous in cells; host or cells: 293 cells (membrane fractions); only the substrates APP, Notch-ΔE and p75-ΔE are overexpressed
Procedure: as §2

[8] = target: T3, γ-secretase cleavage of Notch1 (NICD) (Homo sapiens, UniProt P49768); test: Cell-free generation of NICD from membrane fractions of 293 cells overexpressing Notch-AE; type: biochemical
T3 construct: Membrane fractions isolated from 293 cells overexpressing either APP (A), Notch-AE (B) or p75-AE (C); endogenous in cells; host or cells: 293 cells (membrane fractions); only the substrates APP, Notch-ΔE and p75-ΔE are overexpressed
Procedure: as §2

[9] = system: Aβ42 production in mammalian cells; conditions: Tae-Wan Kim et al., cited from earlier work
[10] = system: full-length APP and APP C-terminal fragments, Neuro2a-APPsw cells; test: Western blot analysis of APP processing in neuro2a cells expressing APPsw; type: cell-based, mouse
From the text: as §1

**Q.** For `C=C(CCC=C(C)C)[C@H]1CC[C@]2(C)[C@@H]1[C@H](O)C[C@@H]1[C@@]3(C)CC[C@H](O[C@@H]4O[C@H](CO)[C@@H](O)[C@H](O)[C@H]4O[C@@H]4O[C@H](CO)[C@@H](O)[C@H](O)[C@H]4O)C(C)(C)[C@@H]3CC[C@]12C` [Rk1], which “Aβ37 (1-37)” value [1] is on record?
**A.** Its value is “elevation”.

**Q.** What about the “Aβ38 (1-38)” value [1] of the same compound?
**A.** Its value is “elevation”.

**Q.** What about the “Aβ42 species (1-42)” value [1] of the same compound?
**A.** The value was “decrease”.

**Q.** What about the “Aβ generation in a cell-free γ-secretase assay” value (γ-secretase; FIG. 15) of the same compound?
**A.** The value was “inhibits Aβ generation”.

**Q.** What about the “Aβ42 generation in vitro” value (γ-secretase; cell-free γ-secretase assay, FIG. 15 (100 μM in A)) of the same compound?
**A.** The value was “inhibit the Aβ42 production; also recorded: potently inhibited”.

**Q.** And the “Aβ40 generation in vitro” value (γ-secretase; cell-free γ-secretase assay, FIG. 15B)?
**A.** The value was “inhibited both Aβ40 and Aβ42 with a similar potency”.

**Q.** What about the IC50 (γ-secretase; cell-free γ-secretase assay, FIG. 15B, read-out: IC50 for Aβ40) of the same compound?
**A.** The IC50 was 27 ± 3 µM.

**Q.** What about the IC50 (γ-secretase; cell-free γ-secretase assay, FIG. 15B, read-out: IC50 for Aβ42) of the same compound?
**A.** The IC50 was 32 ± 5 µM.

**Q.** And the “APP C-terminal fragments (γ-secretase substrates), steady-state levels” value [2]?
**A.** Its value is “increased accumulation; also recorded: up-regulated”.

**Q.** And the “full-length APP levels” value [2]?
**A.** The value was “not affected; also recorded: did not affect”.

**Q.** What about the “cell-free generation of p75-ICD” value [3] of the same compound?
**A.** The value was “does not significantly affect; also recorded: not affected”.

**Q.** And the “generation of Aβ42 (Aβ42 levels in the medium, ELISA, normalized to intracellular full-length APP)” value ([4]; 50 μg/ml, 8 hrs, FIG. 4)?
**A.** Its value is “reduce the generation of Aβ42”.

**Q.** What about the “Aβ42-lowering effect compared with other agents” value ([4]; CHO-APP cells) of the same compound?
**A.** The value was “most effective”.

**Q.** What about the IC50 ([4]; CHO-APP cells, FIG. 12A, read-out: IC50 of Aβ42 lowering activity) of the same compound?
**A.** Its IC50 is ~20 µM.

**Q.** What about the “preference for Aβ42 vs. Aβ40 in cell-based assay” value ([4]; FIG. 6 / FIG. 12B) of the same compound?
**A.** Its value is “preferentially reduced Aβ42 (vs. Aβ40); also recorded: preferentially lowers Aβ42 (vs. Aβ40); also recorded: rather selective to Aβ42; also recorded: primarily affect Aβ42 production”.

**Q.** What about the “Aβ42 in the medium, dose-response” value ([4]; dose-dependent, FIG. 5 / FIG. 12A) of the same compound?
**A.** Its value is “reduced Aβ42; also recorded: lower Aβ42 in a dose-dependent manner”.

**Q.** What about the “production of Aβ42 in cells” value ([4]; general statement) of the same compound?
**A.** Its value is “lower the production of Aβ42”.

**Q.** And the “concentration at which secretion of Aβ40 was affected” value ([4]; only at very high concentration)?
**A.** The value was ~100 µM.

**Q.** And the Aβ40 production ([4]; overnight treatment, FIG. 12B)?
**A.** Its Aβ40 production is “slightly affected”.

**Q.** And the Aβ42 production ([4]; overnight treatment, FIG. 12B)?
**A.** The Aβ42 production was “reduce Aβ42 production”.

**Q.** What about the Aβ42-lowering activity ([4]; summary of Tables 1-3) of the same compound?
**A.** The Aβ42-lowering activity was “Yes”.

**Q.** What about the “level of secreted Aβ40” value [5] of the same compound?
**A.** Its value is “decreased”.

**Q.** And the “level of secreted Aβ42” value [5]?
**A.** Its value is “decreased”.

**Q.** And the “potency of Aβ42-reducing activity (rank)” value ([6]; 50 μM, 8 hrs, FIG. 11)?
**A.** Its value is “Rk1>/=(20S)Rg3>Rg5>(20R)Rg3; also recorded: highest”.

**Q.** And the Aβ42 levels ([6]; CHO cells co-expressing human APP and wild-type presenilin 1, FIG. 8)?
**A.** The Aβ42 levels was “reduced the Aβ42 levels”.

**Q.** What about the “secretion of Aβ42” value ([6]; heat-processing derived ginsenosides, 50 μM, 8 hrs, FIG. 11) of the same compound?
**A.** Its value is “selectively lowered the secretion of Aβ42”.

**Q.** And the “cell-free generation of AICD” value [7]?
**A.** Its value is “does not significantly affect; also recorded: not affected”.

**Q.** What about the “cell-free generation of NICD” value [8] of the same compound?
**A.** The value was “does not significantly affect; also recorded: not affected”.

**Q.** And the “production of Aβ42 in mammalian cells” value ([9]; patent application pending)?
**A.** The value was “lower the production of Aβ42”.

**Q.** And the “relative effectiveness in reducing Aβ42 levels” value [9]?
**A.** Its value is “most effective”.

**Q.** What about the “full-length APP levels” value ([10]; Neuro2a-APPsw cells) of the same compound?
**A.** The value was “did not affect”.

**Q.** What about the “APP C-terminal fragments, steady-state levels” value ([10]; neuro2a cells expressing APPsw) of the same compound?
**A.** Its value is “increased accumulation; also recorded: up-regulated”.
